Assay results reported in EPA's ToxRefDB 2.

Legend:
mouse [1] = conditions: Prenatal developmental toxicity study; swiss albino; Oral; Gavage/Intubation; dose end: 15 GD; group: developmental; systemic / in life observation / body weight / fetal weight
dog [2] = conditions: Subchronic oral toxicity in nonrodent, beagle, Feed, dose end: 13 week, group: systemic
dog [3] = conditions: Chronic toxicity; beagle; Oral; Feed; dose end: 12 month; group: systemic; systemic / hematology / erythrocyte (rbc) count differential / erythrocyte (rbc) + systemic / hematology / hematocrit (hct) / hematocrit (…
rabbit [4] = conditions: Prenatal developmental toxicity study, new zealand white, Oral, Gavage/Intubation, dose end: 19 GD
rat [5] = conditions: Prenatal developmental toxicity study, sprague dawley, Oral, Gavage/Intubation, dose end: 15 GD
mouse [6] = conditions: Combined chronic toxicity/carcinogenicity, cd1, Oral, Feed, dose end: 95 week, group: systemic
rat [7] = conditions: Combined chronic toxicity/carcinogenicity, sprague dawley, Oral, Feed, dose end: 104 week, group: systemic
rat [8] = conditions: Subchronic oral toxicity in rodents, sprague dawley, Feed, dose end: 13 week, group: systemic, systemic / hematology / leukocyte (wbc) count differential / leukocyte (wbc) + systemic / in life observation / body weight / body weight …
dog [9] = conditions: Subchronic oral toxicity in nonrodent, beagle, Feed, dose end: 13 week, group: systemic; remark: listed apart in the source
rat [10] = conditions: Prenatal developmental toxicity study, other, Oral, Gavage/Intubation, dose end: 16 GD
dog [11] = conditions: Chronic toxicity, beagle, Oral, Feed, dose end: 52 week, group: systemic
rat [12] = conditions: Subchronic oral toxicity in rodents, other, Feed, dose end: 90 day, group: systemic
mouse [13] = conditions: Carcinogenicity; cd1; Oral; Feed; dose end: 104 week; group: systemic; systemic / pathology gross / liver / mass + systemic / pathology gross / liver / nodule(s) + systemic / pathology microscopic / liver / …
rat [14] = conditions: Combined chronic toxicity/carcinogenicity, other, Oral, Feed, dose end: 25 month, group: systemic
rat [15] = conditions: Multigenerational reproductive toxicity study, sprague dawley, Oral, Feed, dose end: 2 generation
rabbit [16] = conditions: Prenatal developmental toxicity study, new zealand white, Oral, Gavage/Intubation, dose end: 28 GD
rat [17] = conditions: Combined chronic toxicity/carcinogenicity, other, Oral, Feed, dose end: 104 week, group: systemic
[18] = systemic / clinical chemistry / alkaline phosphatase (alp/alk) / alkaline phosphatase (alp/alk) + systemic / clinical chemistry / aspartate …
[19] = systemic / organ weight / heart / absolute
[20] = group: developmental, developmental / developmental malformation / other / other + systemic / in life observation / body weight / fetal weight + developmental / …
[21] = group: maternal, systemic / in life observation / body weight / body weight gain + systemic / in life observation / clinical signs / no feces + systemic / in…
[22] = group: maternal, systemic / in life observation / clinical signs / no feces + systemic / in life observation / clinical signs / soft stools
[23] = group: developmental, developmental / developmental malformation / bone / unossified
[24] = group: developmental, developmental / developmental malformation / bone / unossified + developmental / developmental malformation / bone / incomplete ossification…
[25] = group: maternal, systemic / in life observation / body weight / body weight + systemic / in life observation / body weight / body weight gain + systemic / in…
[26] = systemic / in life observation / body weight / body weight + systemic / in life observation / body weight / body weight gain + systemic / in…
[27] = systemic / hematology / leukocyte (wbc) count differential / leukocyte (wbc) + systemic / pathology microscopic / liver / adenoma/carcinoma …
[28] = systemic / organ weight / liver / absolute
[29] = group: developmental, developmental / developmental malformation / bone / misaligned + developmental / developmental malformation / kidney / absent renal papilla…
[30] = group: maternal, systemic / in life observation / body weight / body weight gain + systemic / in life observation / food consumption / food consumption + …
[31] = systemic / clinical chemistry / alkaline phosphatase (alp/alk) / alkaline phosphatase (alp/alk) + systemic / pathology microscopic / liver…
[32] = systemic / in life observation / body weight / body weight + systemic / in life observation / food consumption / food efficiency
[33] = systemic / in life observation / body weight / body weight + systemic / in life observation / food consumption / food efficiency + systemic…
[34] = group: offspring, systemic / in life observation / body weight / offspring (pup) weight
[35] = group: parental, systemic / in life observation / body weight / body weight + systemic / in life observation / body weight / body weight gain
[36] = group: developmental, systemic / in life observation / body weight / fetal weight
[37] = group: maternal, reproductive / reproductive performance / aborted / aborted + systemic / in life observation / body weight / body weight gain + systemic / …

## Nc1ccn([C@H]2CC[C@@H](CO)O2)c(=O)n1 [2',3'-Dideoxycytidine]
Mouse [1]
  LEL: 500 mg/kg/day
  LOAEL: > 500 mg/kg/day
  NEL: 200 mg/kg/day
  NOAEL: ≥ 500 mg/kg/day

## CCNc1nc(Cl)nc(NCC)n1 [Simazine]
Dog [2]; [18]
  LOAEL: 64.3 mg/kg/day
  NOAEL: 8.2 mg/kg/day
Dog [2]; [19]
  LEL: 6.9 mg/kg/day
  NEL: < 6.9 mg/kg/day
Dog [3]
  LEL: 3.64 mg/kg/day
  LOAEL: 3.64 mg/kg/day
  NEL: 0.76 mg/kg/day
  NOAEL: 0.76 mg/kg/day
Rabbit [4]; group: developmental, developmental / developmental malformation / other / other + systemic / in life observation / body weight / fetal weight
  LOAEL: 200 mg/kg/day
Rabbit [4]; [20]
  LEL: 200 mg/kg/day
  NEL: 75 mg/kg/day
  NOAEL: 75 mg/kg/day
Rabbit [4]; [21]
  LOAEL: 75 mg/kg/day
  NOAEL: 5 mg/kg/day
Rabbit [4]; [22]
  LEL: 5 mg/kg/day
  NEL: < 5 mg/kg/day
Rat [5]; [23]
  LEL: 30 mg/kg/day
  NEL: < 30 mg/kg/day
Rat [5]; [24]
  LOAEL: 300 mg/kg/day
  NOAEL: 30 mg/kg/day
Rat [5]; [25]
  LEL: 300 mg/kg/day
  LOAEL: 300 mg/kg/day
  NEL: 30 mg/kg/day
  NOAEL: 30 mg/kg/day
Mouse [6]; systemic / in life observation / body weight / body weight + systemic / in life observation / body weight / body weight gain
  LOAEL: 132 mg/kg/day
Mouse [6]; [26]
  LEL: 132 mg/kg/day
  NEL: 5.3 mg/kg/day
  NOAEL: 5.3 mg/kg/day
Rat [7]; systemic / hematology / leukocyte (wbc) count differential / leukocyte (wbc)
  LOAEL: 4.17 mg/kg/day
Rat [7]; systemic / hematology / leukocyte (wbc) count differential / leukocyte (wbc) + systemic / in life observation / body weight / body weight …
  LEL: 4.17 mg/kg/day
Rat [7]; [27]
  NEL: 0.41 mg/kg/day
  NOAEL: 0.41 mg/kg/day
Rat [8]
  LEL: 12.6 mg/kg/day
  LOAEL: 12.6 mg/kg/day
  NEL: < 12.6 mg/kg/day
  NOAEL: < 12.6 mg/kg/day

## CN(C)c1nc(=O)n(C2CCCCC2)c(=O)n1C [Hexazinone]
Dog [9]; systemic / clinical chemistry / alkaline phosphatase (alp/alk) / alkaline phosphatase (alp/alk) + systemic / in life observation / body …
  LOAEL: 122 mg/kg/day
Dog [9]; [28]
  LEL: 5.1 mg/kg/day
  NEL: < 5.1 mg/kg/day
Dog [9]; systemic / organ weight / liver / absolute + systemic / clinical chemistry / alkaline phosphatase (alp/alk) / alkaline phosphatase (alp/alk…
  NOAEL: 25.9 mg/kg/day
Rat [10]; [29]
  LEL: 900 mg/kg/day
  LOAEL: 900 mg/kg/day
  NEL: 400 mg/kg/day
  NOAEL: 400 mg/kg/day
Rat [10]; group: maternal, systemic / in life observation / body weight / body weight gain + systemic / in life observation / food consumption / food consumption
  LOAEL: 400 mg/kg/day
Rat [10]; [30]
  LEL: 400 mg/kg/day
  NEL: 100 mg/kg/day
  NOAEL: 100 mg/kg/day
Dog [11]; [31]
  LOAEL: 37.6 mg/kg/day
  NEL: 4.97 mg/kg/day
  NOAEL: 4.97 mg/kg/day
Dog [11]; systemic / pathology microscopic / liver / lesion(s) (nos) + systemic / pathology microscopic / liver / pigmentation
  LEL: 37.6 mg/kg/day
Rat [12]; [32]
  LOAEL: 440 mg/kg/day
Rat [12]; [33]
  LEL: 440 mg/kg/day
  NEL: 81 mg/kg/day
  NOAEL: 81 mg/kg/day
Mouse [13]
  LEL: 366 mg/kg/day
  LOAEL: 366 mg/kg/day
  NEL: 28 mg/kg/day
  NOAEL: 28 mg/kg/day
Rat [14]; [32]
  LOAEL: 53.4 mg/kg/day
Rat [14]; [33]
  LEL: 53.4 mg/kg/day
  NEL: 10.2 mg/kg/day
  NOAEL: 10.2 mg/kg/day
Rat [15]; [34]
  LEL: 154 mg/kg/day
  LOAEL: 180 mg/kg/day
  NEL: 15.3 mg/kg/day
  NOAEL: 17.7 mg/kg/day
Rat [15]; [35]
  LEL: 143 mg/kg/day
  LOAEL: 143 mg/kg/day
  NEL: 14.3 mg/kg/day
  NOAEL: 14.3 mg/kg/day
Rabbit [16]; [36]
  LEL: 125 mg/kg/day
  LOAEL: 125 mg/kg/day
  NEL: 50 mg/kg/day
  NOAEL: 50 mg/kg/day
Rabbit [16]; [37]
  LEL: 125 mg/kg/day
  LOAEL: 125 mg/kg/day
  NEL: 50 mg/kg/day
  NOAEL: 50 mg/kg/day
Rat [17]; [32]
  LOAEL: 50 mg/kg/day
Rat [17]; [33]
  LEL: 50 mg/kg/day
  NEL: 10 mg/kg/day
  NOAEL: 10 mg/kg/day
